These results are taken from ChEMBL document CHEMBL3507680, “University of Dundee, Gates Library screen for HepG2 cell viability”.

The structures appear in SMILES notation.

The series can be described thus: Human HepG2 cell viability assay in 384 well format. The format is toxicity, cell-based. Further details: dose 125 nL, time 70.5 hour; concentration not given beside the values. Conditions: HepG2 cells, read-out: Inhibition.
Turning to `Cc1nn(C)c(N2CCOCC2)c1CN[C@@H]1c2ccccc2C[C@@H]1O`, the cytotoxicity at 70.5 h was -0.734%.

With `Cc1n[nH]c(C)c1-c1cnc(CC2CCN(C)C2)cn1` (configuration not stated), the cytotoxicity at 70.5 h is -17.7%.

In the case of `c1ccc(Cc2noc(CN3CCCC(Cn4cncn4)C3)n2)cc1` (configuration not stated), the cytotoxicity at 70.5 h is -14.5%.

With `CC(C)NC(=O)CN(C)C(=O)c1c(Cl)c2ccccc2n1C`, the cytotoxicity at 70.5 h is -0.0324%.

`O=C(NC[C@H]1OC[C@@H](NCc2ccccc2)[C@@H]1O)Nc1ccc(F)cc1`: the cytotoxicity at 70.5 h was -4.13%.

In the case of `Cc1cccc(C)c1OC1CN(Cc2cnc(N3CCOCC3)nc2)C1`, the cytotoxicity at 70.5 h was -7%.

`O=C1CC(N(C(=O)c2ccc(Oc3ccccc3)cc2)C2CC2)C(=O)N1` (configuration not stated): the cytotoxicity at 70.5 h is -4.82%.

With `COc1ccc(-c2noc([C@@H](C)NC(=O)NC(C)(C)C)c2C(=O)O)cc1`, the cytotoxicity at 70.5 h was -10.4%.

In the case of `O=C(CO)N1CCc2onc(Cn3cccn3)c2C1`, the cytotoxicity at 70.5 h was -13.8%.

Take `CCn1ncc(CNc2[nH]cnc3nncc2-3)c1C`: the cytotoxicity at 70.5 h was -13.8%.

On to `COC1CCCN(C(=O)NCc2ccc(C(=O)N(C)C(C)C)cc2)C1` (configuration not stated), for which the cytotoxicity at 70.5 h was 25.2%.

Take `N#Cc1ccc(S(=O)(=O)Nc2ccc(N3CCOCC3)cn2)cc1`: the cytotoxicity at 70.5 h was 0.03%.

Regarding `OCCN1CCN(Cc2coc(-c3ccc(Cl)cc3)n2)CC1`, the cytotoxicity at 70.5 h was -11.8%.

On to `Cn1ccnc1CN(CCO)C(=O)c1cc2ccccc2o1`, for which the cytotoxicity at 70.5 h came to 9.95%.

Turning to `Cc1nn(C)c(C)c1OCC(=O)NCc1cccc(C(=O)O)c1`, the cytotoxicity at 70.5 h was 3.51%.

Regarding `Cc1cc(SC(C)(C)C)ccc1NC(=O)CNC(N)=O`, the cytotoxicity at 70.5 h is -9.26%.

With `COCCCNc1ncnc2c1CCN(C(=O)CC1C=CCC1)CC2` (configuration not stated), the cytotoxicity at 70.5 h is -5.04%.

For `O=C(NCC1(CO)CC1)NC(c1nccs1)C1CC1` (configuration not stated), the cytotoxicity at 70.5 h is -3.86%.

On to `Cc1cnn(CCNCCCOc2ccc(C#N)cc2)c1`, for which the cytotoxicity at 70.5 h is 3.37%.

For the compound `COCCC(=O)N1C[C@H]2CN(Cc3cccc(C)n3)C(=O)[C@H]2C1`, the cytotoxicity at 70.5 h was -11.1%.

As for `O=C1[C@H]2CN(Cc3ccncc3)C[C@H]2CN1c1ccsc1`, the cytotoxicity at 70.5 h was -10.1%.

In the case of `OCC(CO)Nc1ccc2c(Cl)ccc(Cl)c2n1`, the cytotoxicity at 70.5 h is -1%.

Consider `O=C(NCc1cccs1)[C@H]1CC[C@@H]2[C@@H](CCN2Cc2ccoc2)O1`, for which the cytotoxicity at 70.5 h turned out to be 2.32%.

Consider `CCOCCCC(=O)N(C)C(c1cccc(F)c1)c1ccccn1` (configuration not stated), for which the cytotoxicity at 70.5 h was -23.5%.

As for `COc1cccc(-c2n[nH]c3c2CN(C(=O)c2oc(C)cc2C)CC3)c1`, the cytotoxicity at 70.5 h is -0.91%.

Take `CN1CCN(c2ncccc2N)CC1`: the cytotoxicity at 70.5 h is -11.7%.

Take `O=c1[nH]cc(N2CCOCC2)c(=O)[nH]1`: the cytotoxicity at 70.5 h was -0.0513%.

With `CC(C)NC(=O)Nc1ccc(-c2nc3c([nH]2)CCNC3)cc1`, the cytotoxicity at 70.5 h is -15.8%.

Take `CC(C)Cc1cc(C(=O)NCC2CCCN(c3ccccn3)C2)on1` (configuration not stated): the cytotoxicity at 70.5 h stood at 9.21%.

In the case of `CC(OCC1CC1)C(=O)Nc1nccn1Cc1ccccc1` (configuration not stated), the cytotoxicity at 70.5 h is -14.6%.

Turning to `CCc1csc(C2CCCN(C(=O)c3ccc(=O)n(CC)n3)C2)n1` (configuration not stated), the cytotoxicity at 70.5 h is -5.74%.

Take `Cc1ccc(C(=O)NCC(C)Cn2ccnc2C)c(=O)[nH]1` (configuration not stated): the cytotoxicity at 70.5 h was found to be 0.288%.

`COc1ccccc1CCNC(=O)CNC1CCc2nc(C)nn2C1` (configuration not stated): the cytotoxicity at 70.5 h was -0.271%.

For `Cc1noc(C)c1CN1C[C@@H]2COC[C@]2(COc2ccc(C#N)cn2)C1`, the cytotoxicity at 70.5 h was -2.55%.

As to `COCCc1noc(CN2CCCCC2Cn2cccn2)n1` (configuration not stated), the cytotoxicity at 70.5 h was -11.6%.

With `O=C1N(CC2CC2)CCC12CCN(CC1CC1)CC2`, the cytotoxicity at 70.5 h is -6.9%.

For `CN(C)CCN(C)C(=O)Cc1ccc2c(c1)OCCO2`, the cytotoxicity at 70.5 h was found to be 0.0835%.

As for `O=C(CC1CC1)N1C[C@@H]2CCN(c3cnccn3)C[C@@H]2C1`, the cytotoxicity at 70.5 h was determined as 4.03%.

With `CCOC(=O)N1CCC2(CCNC2)C1` (configuration not stated), the cytotoxicity at 70.5 h is -5.56%.

On to `Cn1cccc1CNCC1CCCn2cc(C(C)(C)C)nc21` (configuration not stated), for which the cytotoxicity at 70.5 h was determined as 5.68%.

Turning to `CCn1cc(CN(C)S(=O)(=O)c2ccc(C(C)C)cc2)cn1`, the cytotoxicity at 70.5 h is -6.2%.

As for `CCn1cc(NC(=O)NCC(c2cccs2)N(C)C)cn1` (configuration not stated), the cytotoxicity at 70.5 h is -4.7%.

With `Cc1cc(N2CCCC(O)(CN(C)C)C2)c2cc3c(cc2n1)OCO3` (configuration not stated), the cytotoxicity at 70.5 h was 0.76%.

Turning to `CCc1ccc(C2CC(=O)Nc3cc(NS(C)(=O)=O)ccc32)o1` (configuration not stated), the cytotoxicity at 70.5 h came to 31.4%.

In the case of `CC(C)CC(C)(CNC(=O)c1cnccn1)NC(=O)c1cnccn1` (configuration not stated), the cytotoxicity at 70.5 h is -0.237%.

In the case of `C1CN(c2nc(C3CC3)ns2)CCS1`, the cytotoxicity at 70.5 h is -1.41%.

Take `CCN(CC)CCN(C)c1nc(-c2ccc(Cl)cc2)nc2c1CNC2`: the cytotoxicity at 70.5 h stood at 20.6%.

On to `CC(C)(C)n1ncc(NCc2ccccc2)c(Cl)c1=O`, for which the cytotoxicity at 70.5 h was determined as 22.2%.

Take `Cc1ccc2c(c1)c(CNC(=O)C1CC(=O)N(C3CCCC3)C1)nn2C` (configuration not stated): the cytotoxicity at 70.5 h is 16.8%.

As for `CSc1ccc(C(C)NC(=O)c2cc(C)on2)cc1` (configuration not stated), the cytotoxicity at 70.5 h was -4.63%.

`CCN(CC)C(=O)Cn1cc(-c2nc(C(C)C)no2)nn1`: the cytotoxicity at 70.5 h is -9.42%.

On to `CC(C)CCN(C)C(=O)c1cnc2c(cnn2CC(C)C)c1`, for which the cytotoxicity at 70.5 h worked out at 1.58%.

In the case of `COc1nn(C)c2c1CCCN(C(=O)c1cscn1)C2`, the cytotoxicity at 70.5 h came out at 2.23%.

For `CSC(C)C(=O)N1CCCN(c2ncccc2C#N)CC1` (configuration not stated), the cytotoxicity at 70.5 h is 12.4%.

`CCN(Cc1noc(C)n1)C(=O)C(c1ccc(C)cc1)N(C)C` (configuration not stated): the cytotoxicity at 70.5 h is -0.785%.

For `COc1ccc(OC)c(Sc2ncccc2C(=O)N(C)CCC#N)c1`, the cytotoxicity at 70.5 h was determined as 5.96%.

For the compound `Cn1cc(CC(=O)N2CCC(Nc3cccnn3)CC2)c2ccccc21`, the cytotoxicity at 70.5 h was -4.98%.

For the compound `COc1ccc(C2CCCN2C(=O)c2cc3c([nH]c2=O)CCC3)cc1` (configuration not stated), the cytotoxicity at 70.5 h was -2.02%.

With `CS(=O)(=O)C1CCN(S(=O)(=O)c2ccc(F)c(F)c2)CC1`, the cytotoxicity at 70.5 h came out at 1.4%.

Turning to `CN1C[C@@H](NC(=O)C2CC2)C[C@H]1c1nc(-c2cnccn2)no1`, the cytotoxicity at 70.5 h turned out to be 1.69%.

For the compound `CN(Cc1ccc(OCC(=O)N2CCOCC2)cc1)S(C)(=O)=O`, the cytotoxicity at 70.5 h was found to be 2.5%.

Take `CCn1nc(C)c(CN(CCOC)Cc2ccccn2)c1C`: the cytotoxicity at 70.5 h is -6.94%.

On to `CCC(=O)N1CCc2nc3cc(OC)c(OC)cc3c(=O)n2CC1`, for which the cytotoxicity at 70.5 h is 29.2%.

As for `CCCNCc1ccc(-c2ccnc3[nH]ccc23)cc1`, the cytotoxicity at 70.5 h came out at 29.1%.

On to `COC(=O)C1CCN(C(=O)Cn2ccc(-c3ccsc3)n2)CC1`, for which the cytotoxicity at 70.5 h was -3.32%.

With `COc1cccc(OCC2CCCN(C(=O)c3cnn(C)c3)C2)c1` (configuration not stated), the cytotoxicity at 70.5 h was 27.4%.

In the case of `O=C(CN1CCOC(Cn2cccn2)C1)NCc1ccco1` (configuration not stated), the cytotoxicity at 70.5 h is -2.4%.

Take `COC(=O)c1cc2c(OC)c(C)c(OC)cc2[nH]1`: the cytotoxicity at 70.5 h was -9.36%.

Consider `c1cnnc(N2CCCC2CNCc2cscn2)c1` (configuration not stated), for which the cytotoxicity at 70.5 h was -15%.

Turning to `COCCn1cncc1CN1CCC(C(C)=O)(c2ccccc2)CC1`, the cytotoxicity at 70.5 h is -15.1%.

Take `CN(C)c1ccc(C(=O)N2CCCC(n3cccn3)C2)cn1` (configuration not stated): the cytotoxicity at 70.5 h was 15%.

As to `Cc1ccc(C(N)c2cccs2)cc1` (configuration not stated), the cytotoxicity at 70.5 h turned out to be 31.8%.
